Results: US10123993B2, “Cyclic ureas as inhibitors of rock” (BRISTOL-MYERS SQUIBB COMPANY, priority 2015, dated 2018)

Molecular target: ROCK2 (Homo sapiens, UniProt O75116)
Experiment: ROCK2 kinase inhibition assay (Caliper LABCHIP, FITC peptide substrate)
Format: biochemical
Conditions: 5 μM ATP, 1.5 μM peptide substrate; value ranges
Method in brief: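 Rho kinase with 5 μM ATP and 1.5 μM FITC-AHA-AKRRRLSSLRA-OH peptide in HEPES pH 7.5, 20 mM MgCl2, 0.015% Brij-35, 4 mM DTT, DMSO <2%. EDTA stop; phospho and non-phospho peptide separated on LabChip. IC50 from dose-response fit.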

Chain of ROCK2 (O75116 whole entry, species assumed): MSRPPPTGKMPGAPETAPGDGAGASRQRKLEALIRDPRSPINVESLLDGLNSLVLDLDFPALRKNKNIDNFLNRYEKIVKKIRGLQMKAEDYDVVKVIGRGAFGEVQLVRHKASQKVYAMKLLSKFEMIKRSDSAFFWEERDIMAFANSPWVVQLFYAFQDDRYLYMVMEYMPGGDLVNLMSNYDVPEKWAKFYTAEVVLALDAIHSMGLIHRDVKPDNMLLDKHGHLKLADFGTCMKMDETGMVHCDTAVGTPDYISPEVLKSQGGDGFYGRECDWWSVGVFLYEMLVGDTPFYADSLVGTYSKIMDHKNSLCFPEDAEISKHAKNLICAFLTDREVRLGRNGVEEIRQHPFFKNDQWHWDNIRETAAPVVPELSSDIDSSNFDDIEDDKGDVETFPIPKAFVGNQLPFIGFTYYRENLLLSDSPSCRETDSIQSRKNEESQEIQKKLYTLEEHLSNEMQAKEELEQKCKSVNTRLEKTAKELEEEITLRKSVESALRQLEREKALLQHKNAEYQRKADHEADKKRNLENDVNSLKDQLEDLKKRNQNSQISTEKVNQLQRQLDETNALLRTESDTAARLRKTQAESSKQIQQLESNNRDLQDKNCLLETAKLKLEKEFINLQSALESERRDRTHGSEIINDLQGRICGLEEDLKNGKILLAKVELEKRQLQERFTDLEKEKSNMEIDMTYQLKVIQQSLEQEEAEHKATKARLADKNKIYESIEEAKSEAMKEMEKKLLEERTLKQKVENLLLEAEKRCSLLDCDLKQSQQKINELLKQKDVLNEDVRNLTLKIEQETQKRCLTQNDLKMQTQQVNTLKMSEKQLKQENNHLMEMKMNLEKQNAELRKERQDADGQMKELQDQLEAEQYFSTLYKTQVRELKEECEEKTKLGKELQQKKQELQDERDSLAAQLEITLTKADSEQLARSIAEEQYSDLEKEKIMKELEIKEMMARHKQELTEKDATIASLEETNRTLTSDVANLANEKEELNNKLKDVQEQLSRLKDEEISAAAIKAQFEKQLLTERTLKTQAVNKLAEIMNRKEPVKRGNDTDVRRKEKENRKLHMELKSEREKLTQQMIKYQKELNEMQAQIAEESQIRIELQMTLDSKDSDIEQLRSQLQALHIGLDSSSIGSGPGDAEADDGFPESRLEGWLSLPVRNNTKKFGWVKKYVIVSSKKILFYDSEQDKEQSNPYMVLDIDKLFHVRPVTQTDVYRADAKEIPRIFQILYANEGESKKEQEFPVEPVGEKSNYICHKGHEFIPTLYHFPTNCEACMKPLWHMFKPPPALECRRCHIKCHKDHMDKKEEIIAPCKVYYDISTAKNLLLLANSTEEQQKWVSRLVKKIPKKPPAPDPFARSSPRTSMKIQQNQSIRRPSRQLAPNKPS

SMILES | IC50
CCc1cc(N2CCN(Cc3cc(F)cc(OC)c3)C2=O)ccc1-c1cn[nH]c1 [Example 280, 1-(3-ethyl-4-(1H-pyrazol-4-yl)phenyl)-3-(3-fluoro-5-methoxybenzyl)imidazolidin-2-one] | 2.1 to 20 nM
COc1cccc(C(CO)n2ccn(-c3ccc(-c4cn[nH]c4)cc3)c2=O)c1 (single isomer, unassigned) [Example 324, 1-(4-(1H-Pyrazol-4-yl)phenyl)-3-(2-hydroxy-1-(3-methoxyphenyl)ethyl)-1H-imidazol-2(3H)-one] | < 2 nM
COCC(c1cccc(OC)c1)N1CCN(c2ccc(-c3cn[nH]c3)cc2)C1=O (single isomer, unassigned) [Example 156, 1-(4-(1H-Pyrazol-4-yl)phenyl)-3-(2-methoxy-1-(3-methoxyphenyl)ethyl)imidazolidin-2-one] | 2.1 to 20 nM
COc1ccc(CN2C(=O)N(c3ccc(-c4cn[nH]c4)cc3)CC2(C)C)cc1F [Example 139, 1-(4-(1H-pyrazol-4-yl)phenyl)-3-(3-fluoro-4-methoxy-benzyl)-4,4-dimethyl-imidazolidin-2-one] | 200 to 2000 nM
O=C1N(Cc2ccc(Cl)c(Cl)c2)CCN1c1ccc(-c2cn[nH]c2)cn1 [Example 241, 1-(5-(1H-pyrazol-4-yl)pyridin-2-yl)-3-(3,4-dichlorobenzyl)imidazolidin-2-one] | 200 to 2000 nM
COc1cc(N2C(=O)CN(Cc3ccccc3Cl)C2=O)ccc1-c1cn[nH]c1 [Example 89, 1-(2-chlorobenzyl)-3-(3-methoxy-4-(1H-pyrazol-4-yl)phenyl)imidazolidine-2,4-dione] | 200 to 2000 nM
COc1nc(-n2ccn(Cc3cccc(OC(F)F)c3)c2=O)ccc1-c1cn[nH]c1 [Example 419, 1-(3-(difluoromethoxy)benzyl)-3-(6-methoxy-5-(1H-pyrazol-4-yl)pyridin-2-yl)-1H-imidazol-2(3H)-one] | < 2 nM
COc1cc(F)cc(C(C)N2CCN(c3ccc(-c4cn[nH]c4)c(C)n3)C2=O)c1 (single isomer, unassigned) [Example 207, 1-(1-(3-fluoro-5-methoxyphenyl)ethyl)-3-(6-methyl-5-(1H-pyrazol-4-yl)pyridin-2-yl)imidazolidin-2-one] | 200 to 2000 nM
COc1nc(N2CCN(Cc3ccc(F)cc3F)C2=O)ccc1-c1cn[nH]c1 [Example 245, 1-(2,4-difluorobenzyl)-3-(6-methoxy-5-(1H-pyrazol-4-yl)pyridin-2-yl)imidazolidin-2-one] | 20.1 to 200 nM
CC1(C)CN(c2ccc(-c3cn[nH]c3)cc2)C(=O)N1Cc1cccc(F)c1 [Example 141, 1-(4-(1H-pyrazol-4-yl)phenyl)-3-(3-fluoro-benzyl)-4,4-dimethyl-imidazolidin-2-one] | 2.1 to 20 nM
COc1cccc(CN2CCN(c3ccc(-c4ccnc(F)c4)c(OC)n3)C2=O)c1 [Example 319, 1-(2′-fluoro-2-methoxy-[3,4′-bipyridin]-6-yl)-3-(3-methoxybenzyl)imidazolidin-2-one] | 2.1 to 20 nM
CC1(C)CN(c2ccc(-c3cn[nH]c3)cc2)C(=O)N1Cc1cccc(OCC2CC2)c1 [Example 144, 1-(4-(1H-pyrazol-4-yl)phenyl)-3-(3-(cyclo-propyl-methoxy)benzyl)-4,4-dimethyl-imidazolidin-2-one] | 2.1 to 20 nM
COc1cccc(CN2CCN(c3ccc(-c4cn[nH]c4)cc3)C2=O)c1 [Example 2, 1-(4-(1H-pyrazol-4-yl)phenyl)-3-(3-methoxybenzyl)imidazolidin-2-one] | 2.1 to 20 nM
COc1nc(N2CCN(Cc3cccc(C)c3)C2=O)ccc1-c1cn[nH]c1 [Example 257, 1-(6-methoxy-5-(1H-pyrazol-4-yl)pyridin-2-yl)-3-(3-methylbenzyl)imidazolidin-2-one] | 2.1 to 20 nM
CCOc1cccc(C(C)n2ccn(-c3ccc(-c4cn[nH]c4)c(CC)n3)c2=O)c1 (single isomer, unassigned) [Example 365, 1-(1-(3-ethoxyphenyl)ethyl)-3-(6-ethyl-5-(1H-pyrazol-4-yl)pyridin-2-yl)-1H-imidazol-2(3H)-one] | 200 to 2000 nM
COc1cccc(Cn2ccn(-c3ccc(-c4cn[nH]c4)cn3)c2=O)c1 [Example 344, 1-(5-(1H-pyrazol-4-yl)pyridin-2-yl)-3-(3-methoxybenzyl)-1H-imidazol-2(3H)-one] | 2.1 to 20 nM
COc1nc(-n2ccn(Cc3cccnc3)c2=O)ccc1-c1cn[nH]c1 [Example 417, 1-(6-methoxy-5-(1H-pyrazol-4-yl)pyridin-2-yl)-3-(pyridin-3-ylmethyl)-1H-imidazol-2(3H)-one] | 2.1 to 20 nM
COc1cccc(C(CO)n2ccn(-c3ccc(-c4cn[nH]c4)c(OC)c3)c2=O)c1 (single isomer, unassigned) [Example 361, 1-(2-hydroxy-1-(3-methoxyphenyl)ethyl)-3-(3-methoxy-4-(1H-pyrazol-4-yl)phenyl)-1H-imidazol-2(3H)-one] | 2.1 to 20 nM
COc1cccc(CN2CCN(c3ccc(-c4cn[nH]c4)c(OC)c3)C2=O)c1 [Example 7, 1-(3-Methoxy-4-(1H-pyrazol-4-yl)phenyl)-3-(3-methoxybenzyl)imidazolidin-2-one] | 2.1 to 20 nM

SMILES | IC50
COc1nc(-n2ccn(Cc3cccc(F)c3C)c2=O)ccc1-c1cn[nH]c1 [Example 380, 1-(3-fluoro-2-methylbenzyl)-3-(6-methoxy-5-(1H-pyrazol-4-yl)pyridin-2-yl)-1H-imidazol-2(3H)-one] | < 2 nM
COc1cc(F)cc(Cn2ccn(-c3ccc(-c4cn[nH]c4)c(C)n3)c2=O)c1 [Example 185, 1-(3-fluoro-5-methoxy-benzyl)-3-(6-methyl-5-(1H-pyrazol-4-yl)pyridin-2-yl)-1H-imidazol-2(3H)-one] | 2.1 to 20 nM
COc1cc(F)cc(CN2C(=O)N(c3ccc(-c4cn[nH]c4)c(C)n3)CC2(C)C)c1 [Example 151, 3-(3-fluoro-5-methoxy-benzyl)-4,4-dimethyl-1-(6-methyl-5-(1H-pyrazol-4-yl)pyridin-2-yl)-imidazolidin-2-one] | 2.1 to 20 nM
CNC(=O)C(c1cccc(OC)c1)N1CCN(c2ccc(-c3cn[nH]c3)cc2)C1=O (single isomer, unassigned) [Example 292, 2-(3-(4-(1H-pyrazol-4-yl)phenyl)-2-oxoimidazolidin-1-yl)-2-(3-methoxyphenyl)-N-methylacetamide] | 2.1 to 20 nM
CCc1nc(N2CCN(C(C)c3cccc(OC)c3)C2=O)ccc1-c1cn[nH]c1 (single isomer, unassigned) [Example 173, 1-(6-ethyl-5-(1H-pyrazol-4-yl)pyridin-2-yl)-3-(1-(3-methoxy-phenyl)ethyl) imidazolidin-2-one] | < 2 nM
COc1cc(F)cc(CN2C(=O)N(c3ccc(-c4cn[nH]c4)cn3)CC2(C)C)c1 [Example 458, 1-(5-(1H-pyrazol-4-yl)pyridin-2-yl)-3-(3-fluoro-5-methoxybenzyl)-4,4-dimethylimidazolidin-2-one] | 2.1 to 20 nM
COc1cc(N2CC(=O)N(Cc3cccc(F)c3)C2=O)ccc1-c1cn[nH]c1 [Example 100, 3-(3-fluorobenzyl)-1-(3-methoxy-4-(1H-pyrazol-4-yl)phenyl)imidazolidine-2,4-dione] | 20.1 to 200 nM
CCc1cc(N2CCN(Cc3cc(F)cc(OC)c3)C2=O)ncc1-c1cn[nH]c1 [Example 191, 1-(4-ethyl-5-(1H-pyrazol-4-yl)pyridin-2-yl)-3-(3-fluoro-5-methoxy-benzyl) imidazolidin-2-one] | 200 to 2000 nM
COc1cccc(C(C)n2ccn(-c3ccc(-c4cn[nH]c4)c(C)n3)c2=O)c1 (single isomer, unassigned) [Example 189, 1-(1-(3-methoxy-phenyl)-ethyl)-3-(6-methyl-5-(1H-pyrazol-4-yl)pyridin-2-yl)-1H-imidazol-2(3H)-one] | 20.1 to 200 nM
COc1nc(-n2ccn(Cc3cc(F)cc(OCC4CC4)c3)c2=O)ccc1-c1cn[nH]c1 [Example 395, 1-(3-(cyclopropylmethoxy)-5-fluorobenzyl)-3-(6-methoxy-5-(1H-pyrazol-4-yl)pyridin-2-yl)-1H-imidazol-2(3H)-one] | 2.1 to 20 nM
COc1cc(CN2C(=O)N(c3ccc(-c4cn[nH]c4)cc3)C[C@H]2CO)ccc1F (single isomer, unassigned) [Example 131] | 2.1 to 20 nM
COc1cc(F)cc(C(C)n2ccn(-c3ccc(-c4cn[nH]c4)cc3)c2=O)c1 (single isomer, unassigned) [Example 366, 1-(4-(1H-pyrazol-4-yl)phenyl)-3-(1-(3-fluoro-5-methoxyphenyl)ethyl)-1H-imidazol-2(3H)-one] | < 2 nM
COc1cccc(CN2CCN(c3ccc(-c4cn[nH]c4)nc3)C2=O)c1 [Example 439, 1-(6-(1H-pyrazol-4-yl)pyridin-3-yl)-3-(3-methoxybenzyl)imidazolidin-2-one] | 2.1 to 20 nM
COc1nc(N2CCN(Cc3cccc(F)c3OC)C2=O)ccc1-c1cn[nH]c1 [Example 225, 1-(3-fluoro-2-methoxybenzyl)-3-(6-methoxy-5-(1H-pyrazol-4-yl)pyridin-2-yl)imidazolidin-2-one] | 2.1 to 20 nM
CC1(C)CN(c2ccc(-c3cn[nH]c3)cn2)C(=O)N1Cc1cccc(OCC2CC2)c1 [Example 452, 1-(5-(1H-pyrazol-4-yl)pyridin-2-yl)-3-(3-(cyclopropylmethoxy)benzyl)-4,4-dimethylimidazolidin-2-one] | 2.1 to 20 nM
COc1nc(-n2ccn(Cc3ccc(F)cc3F)c2=O)ccc1-c1cn[nH]c1 [Example 414, 1-(2,4-difluorobenzyl)-3-(6-methoxy-5-(1H-pyrazol-4-yl)pyridin-2-yl)-1H-imidazol-2(3H)-one] | 20.1 to 200 nM
O=C(O)c1cccc(CN2CCN(c3ccc(-c4cn[nH]c4)cn3)C2=O)c1 [Example 239, 3-((3-(5-(1H-pyrazol-4-yl)pyridin-2-yl)-2-oxoimidazolidin-1-yl)methyl)benzoic acid] | 20.1 to 200 nM
COc1cc(F)cc(Cn2ccn(-c3ccc(-c4cn[nH]c4)cn3)c2=O)c1 [Example 345, 1-(5-(1H-pyrazol-4-yl)pyridin-2-yl)-3-(3-fluoro-5-methoxybenzyl)-1H-imidazol-2(3H)-one] | 2.1 to 20 nM
